Assay results from patent EP4647071A1, “MITOCHONDRIAL COMPLEX I MODULATOR FOR USE IN THE TREATMENT OF ARTHRITIS” (Istesso Therapeutics Limited, priority 2024, dated 2025).
Marks after values point to notes of the source that are not given here.

Experiments:
rheumatoid factor = experiment: Rheumatoid factor inflammatory biomarker, clinical study; format: in vivo, human; conditions: 12 weeks
Description: These structural changes are accompanied by a reduction in the acute phase reactant, C-reactive protein (CRP) and other inflammatory markers such as rheumatoid factor (Table 4). Table 3. Effect of MCIM compounds on damage indicators. * indicates statistical significance, p<0.05. a p = 0.1

C-reactive protein (CRP) = experiment: C-reactive protein inflammatory biomarker, clinical study; format: in vivo, human; conditions: 12 weeks

C[C@]1(O)CC[C@H](NS(=O)(=O)c2ccc(-c3ccc(Cl)cc3C#N)cc2)CC1 [HMC-C-01-A]
Rheumatoid factor, mean, Change from baseline (rheumatoid factor; 5 mg once daily): 6.8 (80.9)
Rheumatoid factor, mean, Change from baseline (rheumatoid factor; 20 mg once daily): -5.0 (60.4)
Rheumatoid factor, mean, Change from baseline (rheumatoid factor; 40 mg once daily): -11.3 (88.0)
CRP- mean, Change from baseline (C-reactive protein (CRP); 5 mg once daily): 0.88 (18.4)
CRP- median, Change from baseline (C-reactive protein (CRP); 5 mg once daily): -0.20
CRP- mean, Change from baseline (C-reactive protein (CRP); 20 mg once daily): -4.13 (20.6)
CRP- median, Change from baseline (C-reactive protein (CRP); 20 mg once daily): -0.10
CRP- mean, Change from baseline (C-reactive protein (CRP); 40 mg once daily, p<0.05): -5.73 (27.7) *
CRP- median, Change from baseline (C-reactive protein (CRP); 40 mg once daily, p<0.05): -2.50 *
